Legend:
[1] = tested on: HCC827 P and HCC827 TR cells; test: Reno647/Carboplatin combination, median effects (SRB, CalcuSyn); format: cell-based, human
Method: As described in Example 2.1. Two cell lines, HCC827-P and HCC827-TR (Tarceva-resistant HCC727 cells-an EGFRi resistant cell line with MET amplification) (Wang, Pursell et al. 2013) were used in the combination study. Exponentially growing HC[…] and HCC827-TR cells were seeded into 96-wells dishes at density of 3,000 cells per well. Twenty-four hours later, the cells were exposed concurrently to serial dilution of Reno647 or Carboplatin or Camptothecin alone or in combination at a ratio of 1:50 with Carboplatin or at ratio 1:1 with Camptothecin for 3 days. Reno647 were concurrently and sequentially with paclitaxel (Taxol) at ratio of 200:1 for 6 days. For sequential exposure, the cells were treated with Reno647 for 3 days, after removal of the drug containing medium, the cells were treated with Taxol for additional 3 days, or the cells were treated by Taxol first followed by the treatment with Reno 647. After incubation for 6 days, the cell growth was measured by SRB as described previously in Example 2.1 section, and the percentages of inhibition (1-T/C) % were calculated, and data were analyzed by a PC program, CalcuSyn, Biosoft (edited by T.-C. Chou, Memorial Sloan-Kettering Cancer Center, New York, and M. P. Hayball, at Cambridge, UK, 1996). The computer-calculated combination index (CI) was used to judge the outcomes of a combination: […] It has long been accepted that chemotherapy provided some benefit for patients with non-small-cell lung cancer (NSCLC) in terms of quality of life and symptomatology as well as modest improvements in survival. […] Cell growth was determined by SRB as described above.

PD-L1 = test: qRT-PCR expression of PD-L1 in HCC827-P cells; format: cell-based, human; settings: 1 μM, 24 hrs
Method: FIG. 11 depicts the effects of Reno647 on expression of PD-L1 in HCC827-P and HCC827-TR cells. HCC827-P and HCC827-TR cells at exponential growth phase were exposed to indicated concentration of Reno647 for 24 hrs. Total cellular RNA was extracted and cDNA was prepared followed by qRT-PCR using specific probes for PD-L1 and GAPDH (internal control) as described in the section of Materials and Methods. Tgene ΔCt value was normalized for GAPDH by calculating ΔCt=Ctgene−CtGAPDH per sample.
HCC827 P or other indicated cells at exponential growth phase were treated with indicated concentrations of compounds for 24 hours. Total cellular RNA was prepared from lysed tumor cells using an RNA Purification kit (ThermoFisher Scientific). The first-strand of cDNA was synthesized using a High Capacity cDNA reverse transcription kit (ThermoFisher Scientific) in PTC-100 Peltier Thermal Cycler PCR. The resultant cDNA (0.5-1 μL) was used in a 10 μl reaction by using Taqman Universal PCR Master Mix (ThermoFisher Scientific). The pre-designed primers and probe were purchased from Life Technologies and used for qPCR. Human GAPDH was used as an internal control. qPCR was performed using Applied Biosystems StepOne and StepOnePlus Real-Time PCR Systems according manufacturer's instructions. An initial PCR denaturation step was performed at 95° C. for 20 seconds. […]

22RV1 = test: Cell growth inhibition by SRB method; format: cell-based, human; settings: Homo sapiens, 22Rv1, 72 h, 72 hrs exposure, SRB
Text: (§1) Six human cancer cell lines have been used to evaluate effects of the compounds on proliferation of cancer cells. These cell lines include HCC827-P (or HCC827 parent cells), human non-small lung cancer cells, Parent NSCLC HCC827 cell line (which harbors EGFR gene amplification, Exon 19 (E19) deletion, and Exon 21 mutation (Wang, Ramakrishnan et al. 2010), and is an EGFRi sensitive cell line (Kim, Kim et al. 2010)); HCC827-TR16 (Tarceva-resistant HCC727 cell line), HCC827-OR16 (AZD9291-resistant HCC727 cell line), LNCaP (human prostate cancer cells—a hormonal-therapy sensitive cell line (Wang, Liu et al. 1997)); 22RV1 (human prostate cancer cells—a hormonal-therapy resistant cell line (Sramkoski, Pretlow et al. 1999)); and ACHN (human renal adenocarcinoma cells (Park, Jung et al. 2003)). LNCaP cells and 22RV1 cells were purchased from the American Type Culture Collection (Rockville, Md.) and others were gifts of friends.
(§2) All cell lines were maintained in RPMI-1640 (GIBCO, Gaithersburg, Md.) with 10% heat-inactivated bovine serum (FBS) (Wang, Ossowski et al. 2004).
(§3) Sulforhodamine B (SRB) was used to estimate cell growth as described previously (Skehan, Storeng et al. 1990). Briefly, cells grown exponentially were aliquoted into 96-well plates at a density of 2,500 to 5,000 cells/200 μl per well in RPMI 1640 medium containing 10% FBS. After twenty-four hours, the cells were exposed to indicated concentrations of tested compounds for 72 hrs or otherwise as indicated. The cells were then fixed with 10% trichloride acetic acid for 2 h at 4° C. The 10% trichloride acetic acid was removed, and the dishes were washed 5 times with tape water, and air-dried. The fixed and dried cells were then stained with 0.4% SRB in 1% acetic acid for 25 min, and the dishes were washed 5 times with 1% acetic acid and air-dried overnight. 200 μl of 10 mM of Tris buffer (pH 10.0) were added, and the dishes were rotated to completely dissolve the color. Absorbance at 570 nm, with a reference wavelength 690 nm, was measured on a 96-well microplate reader (SPECTRO Star^Nano, BMG Labtech). Mean, standard deviation (SD) and the percent of growth inhibition at each concentration point of the treatment were calculated. The percent of growth inhibition as defined as (1−T/C)×100 where T is the mean of the absorbance at 570 nm from the treatment, and C from control (drug vehicle only). IC50 was calculated using Sigma-plot software by regression of growth-concentration curve from each drug treatment.

LNCaP = test: Cell growth inhibition by SRB method; format: cell-based, human; settings: Homo sapiens, LNCaP; 72 hrs exposure, SRB
Text: as §1, §2, §3

ACHN = test: Cell growth inhibition by SRB method; format: cell-based, human; settings: Homo sapiens, ACHN, 72 hrs exposure
Text: as §1, §2, §3

HCC827TR16 = test: Cell growth inhibition by SRB method; format: cell-based; settings: Homo sapiens, Tarceva-resistant line, 72 hrs exposure
Text: as §1
To evaluate activities of new compounds on growth of EGFR-inhibitor-resistant cells, two EGFRi-resistant cell lines, i.e., HCC827-TR16 and HCC827-OR16 were established using a method described by Eberlein et al. (Eberlein, Stetson et al. 2015). […] Resistant cells were collected and stabilized after 5 weeks (cycle 5). […] The resistant cells were sorted using 96-well dishes by culturing cells with density of 0.1, 1, 10, and 100 cells per well.
as §2, §3

C#Cc1cccc(Nc2ncnc3cc(OCCOC)c(NC(=O)c4ccc(F)c([N+](=O)[O-])c4)cc23)c1 [Reno647, 4-Fluoro-N-[4-(3-ethynyl-phenylamino)-7-(2-methoxy-ethoxy)-quinazolin-6-yl]-3-nitro-benzamide]
dose reduction in combination ([1]; Reno647:Carboplatin 1:50): > 10 fold | median effects, two drugs combined ([1]; Reno647:Carboplatin 1:50, concurrent, cell line not stated): 0.067 µM | median effects, drug alone ([1]; single agent, cell line not stated): 0.697 µM | reduction of PD-L1 expression (PD-L1): Over 93% | IC50 (22RV1): ~500 nM | IC50 (LNCaP): 1250 nM | IC50 (ACHN): 1250 nM | IC50 (HCC827TR16): 1300 nM
